The values below come from patent US12171229B2, “Heteroaryl-triazole and heteroaryl-tetrazole compounds as pesticides” (BAYER AKTIENGESELLSCHAFT, priority 2018, dated 2024).

What all share (format): in vivo
One test deals with Phaedon cochleariae. Description: Phaedon cochleariae spray test. Conditions: foliar, 168 h, after 7 days, larvae on Chinese cabbage leaf disks. As to the method:
Phaedon Cochleariae—Spray Test
(§1) To produce a suitable preparation of active compound, 1 part by weight of active compound is mixed with the stated amount of solvents and is diluted with water, containing an emulsifier concentration of 1000 ppm, to the desired concentration. Further test concentrations are prepared by dilution with emulsifier containing water.
Chinese cabbage (Brassica pekinensis) leaf disks are sprayed with a preparation of the active ingredient of the desired concentration. Once dry, the leaf disks are infested with mustard beetle larvae (Phaedon cochleariae).
After 7 days mortality in % is determined. 100% means all beetle larvae have been killed and 0% means none of the beetle larvae have been killed.

Test [1] deals with Ctenocephalides felis. As to the kind of experiment: Ctenocephalides felis in-vitro contact test, adult cat flea. To be noted: 5 μg/cm^2 (=500 g/ha), after 48 hours, adult cat fleas, read-out: efficacy (fleas dead or moribund). The method, boiled down: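 Compound in acetone coated onto inner walls of glass tubes, e.g. 900 ppm giving 5 μg/cm². After drying, 5–10 adult C. felis added per tube and held at room temperature. At 48 h, fleas unable to escape a 45–50 °C heating plate within 5 min scored dead/moribund, giving % efficacy.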

The next test relates to Boophilus microplus. As to the kind of experiment: Boophilus microplus injection test. To be noted: Rhipicephalus microplus, 168 h; 20 μg/animal injected into the abdomen; adult engorged female ticks; egg deposition after 7 days; read-out: efficacy (infertile eggs). The method, boiled down:
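Efficacy, from 0% (all eggs fertile) to 100% (all infertile), was scored on eggs laid by five engorged adult females. Each female was injected intra-abdominally with 1 μl of compound solution in DMSO. Fertile egg laying was checked at 7 days, with uncertain eggs kept until hatching at about 42 days.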

Another test concerns Myzus persicae. As to the kind of experiment: Myzus persicae oral test. Conditions: 120 h, after 5 days. The method, boiled down:
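Aphid mortality (%) was recorded 5 days after a mixed Myzus persicae population began sucking, through parafilm, on compound solutions (acetone stock diluted with water) combined with sugar-supplemented IPL41 medium.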

Test [2] concerns Ctenocephalides felis. Description: Ctenocephalides felis oral test. Conditions: 48 h, 100 ppm in cattle blood, after 2 days, adult unfed cat fleas. The procedure, abridged: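 Compound dissolved in DMSO and diluted in cattle blood to test concentration, offered to ~20 unfed adult fleas via a parafilm-sealed blood chamber held at 37° C (fleas at room temperature). Kill recorded at 2 days as % mortality.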

The subject of another test is Tetranychus urticae. Description: Tetranychus urticae spray test (OP-resistant). To be noted: foliar, 144 h, after 6 days, French bean leaf disks. The procedure: Tetranychus urticae—Spray Test (OP-Resistant)
as §1
French bean (Phaseolus vulgaris) leaf disks infected with all instars of the two spotted spidermite (Tetranychus urticae), are sprayed with a preparation of the active ingredient of the desired concentration.
After 6 days mortality in % is determined. 100% means all spider mites have been killed and 0% means none of the spider mites have been killed.

The subject of another test is Spodoptera frugiperda. Description: Spodoptera frugiperda spray test. Conditions: 168 h, after 7 days, larvae on maize leaf sections. The method, boiled down:
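Seven-day percent mortality of larvae feeding on Zea mays leaf sections sprayed with test compound. Dilutions were made in water holding 1000 ppm emulsifier.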

Another test deals with Diabrotica balteata. Description: Diabrotica balteata spray test. To be noted: Diabrotica balteata, in Triticum aestivum, 168 h, after 7 days, larvae on wheat seeds, read-out: efficacy (seedlings grown up); for pest or weed control at 80 µg/disc, 250 g/ha: 80 μg/well (=250 g/ha); for pest or weed control at 160 µg/disc, 500 g/ha: 160 μg/well (=500 g/ha). The procedure, abridged: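 Scoring at 7 days compares seedling growth with untreated, uninfested controls (100% = equal growth, 0% = none grown). Wheat seedlings germinated 1 day on agar, 5 per well, received a spray of test solution made in 1000 ppm emulsifier water. Each unit then received 10–20 beetle larvae.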

The subject of test [3] is Musca domestica strain WHO-N. Description: Musca domestica test (MUSCDO surface treatment & contact assay). To be noted: 24 hours after contact, read-out: efficacy (mortality); for mortality at 20 mg/m2: surface concentration 20 mg/m^2, exposure 30 minutes. The procedure:
Musca domestica test (MUSCDO surface treatment & contact assay)
(§2) Solvent: Aceton+2000 ppm rapeseed oil methyl ester (RME)
In order to produce a sufficient, active ingredient containing solution it is necessary to solve the test compound in the solvent-mix (acetone at 2 mg/ml/RME 2000 ppm). This solution is pipetted onto a glazed tile and after evaporation of the acetone, adult flies of the species Musca domestica strain WHO-N are placed onto the dried surface. The exposure time is 30 minutes.
Mortality in percent (%) is determined 24 hours after contact of the insects to the treated surface. 100% morality means that all tested insects are dead, whereas 0% means that no insect died.

A further test relates to Meloidogyne incognita. Description: Meloidogyne incognita test. To be noted: 20 ppm; after 14 days; salad seedlings. The procedure:
Meloidogyne incognita—Test Solvent: 125.0 parts by weight of acetone To produce a suitable preparation of active compound, 1 part by weight of active compound is mixed with the stated amount of solvent, and the concentrate is diluted with water to the desired concentration. Vessels are filled with sand, a solution of the active ingredient, a suspension containing eggs and larvae of the southern root-knot nematode (Meloidogyne incognita) and salad seeds. The salad seeds germinate and the seedlings grow. Galls develop in the roots. After 14 days the nematicidal activity is determined on the basis of the percentage of gall formation. 100% means no galls were found and 0% means the number of galls found on the roots of the treated plants was equal to that in untreated control plants.

Another test relates to Rhipicephalus sanguineus. As to the kind of experiment: Rhipicephalus sanguineus in-vitro contact test, adult brown dog ticks. To be noted: 5 μg/cm^2 (=500 g/ha), after 48 hours, read-out: efficacy (ticks dead or moribund). The procedure:
Rhipicephalus Sanguineus—In-Vitro Contact Tests with Adult Brown Doe Ticks
9 mg compound is solved in 1 ml acetone and diluted with acetone to the desired concentration. 250 μl of the test solution is filled in 25 ml glass test tubes and homogeneously distributed on the inner walls by rotation and tilting on a shaking device (2 h at 30 rpm). With a compound concentration of 900 ppm, an inner surface of 44.7 cm^2 and a homogeneous distribution, a dose of 5 μg/cm^2 is achieved.
After the solvent has evaporated, each test tube is filled with 5-10 adult brown dog ticks (Rhipicephalus sanguineus), closed with a perforated lid and incubated in a lying position at room temperature and relative humidity. After 48 hours efficacy is determined. The ticks are patted on the ground of the tubes and are incubated on a heating plate at 45-50° C. for at most 5 minutes. Immotile or uncoordinated moving ticks, which are not able to escape the heat by climbing upwards, are marked as dead or moribund.
An efficacy of 100% means all ticks are dead or moribund; 0% means no ticks are dead or moribund.

The test system of test [4] is Aedes aegypti strain MONHEIM. As to the kind of experiment: Aedes aegypti test (AEDSAE surface treatment & contact assay). Conditions: 24 hours after contact, read-out: efficacy (mortality); for mortality at 4 mg/m2: surface concentration 4 mg/m^2, exposure 30 minutes; for mortality at 20 mg/m2: surface concentration 20 mg/m^2, exposure 30 minutes. The procedure, abridged:
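Compound dissolved in acetone (2 mg/ml) with 2000 ppm rapeseed oil methyl ester, applied to glazed tile and dried; adult strain MONHEIM mosquitoes exposed 30 minutes. Percent mortality scored 24 hours after contact.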

Another test relates to Nezara viridula. Description: Nezara viridula spray test. Conditions: 96 h, after 4 days, larvae on barley plants. The method, boiled down:
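Mortality (%) was assessed at day 4, from 0% (no bugs dead) to 100% (all dead). The spray solution was compound diluted to test concentration in water with 1000 ppm emulsifier and applied to barley carrying southern green stink bug larvae.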

Test [5] relates to Blattella germanica strain PAULINIA
Description: whole plant or invertebrate. To be noted: read-out: efficacy (mortality). As to the method: Blattella Germanica Test (BLTTGE Surface Treatment & Contact Assay)
as §2
In order to produce a sufficient, active ingredient containing solution it is necessary to solve the test compound in the solvent-mix (acetone at 2 mg/ml/RME 2000 ppm). This solution is pipetted onto a glazed tile and after evaporation of the acetone, adult animals of the species Blattella germanica strain PAULINIA are placed onto the dried surface. The exposure time is 30 minutes.
Mortality in percent (%) is determined 24 hours after contact of the insects to the treated surface. 100% mortality means that all tested insects are dead, whereas 0% means that no insect died.

Test [6] relates to Culex quinquefasciatus strain P00. As to the kind of experiment: Culex quinquefasciatus test (CULXFA surface treatment & contact assay). To be noted: 24 hours after contact, read-out: efficacy (mortality). The procedure, abridged:
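Compound dissolved in acetone (2 mg/ml) with 2000 ppm rapeseed oil methyl ester, applied to glazed tile and dried; adult C. quinquefasciatus strain P00 exposed to surface for 30 minutes. Mortality (%) scored 24 hours after contact.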

Where [7] appears, read: surface concentration 4 mg/m^2, exposure 30 minutes.

On to `CC(c1ncnn1-c1nccs1)N(CC1CC1)C(=O)c1cc(Cl)cc(C(F)(F)F)c1` (stereo not drawn) [Example I-003], for which the mortality at 500 g/ha turned out to be 100% in the test on Phaedon cochleariae, 90% in the test on Tetranychus urticae and 100% in the test on Spodoptera frugiperda. In the test on Ctenocephalides felis [1], the pest or weed control at 5 µg/cm2 amounted to 100%. Further, the pest or weed control at 0.02 mg with Boophilus microplus worked out at 100%. For the same molecule, the mortality at 20 ppm with Myzus persicae (20 ppm) came out at 90%. Besides, the mortality at 100 ppm with Ctenocephalides felis [2] is 100%. Besides, in the test with Diabrotica balteata, the pest or weed control at 80 µg/disc, 250 g/ha was found to be 100%. In addition, the pest or weed control at 160 µg/disc, 500 g/ha in the test with Diabrotica balteata came out at 100%.

Consider `C[C@H](NC(=O)c1cc(Cl)cc(C(F)(F)F)c1)c1ncnn1-c1ncc(C#N)cn1` [Example I-010], for which the pest or weed control at 5 µg/cm2 in the test with Ctenocephalides felis [1] and in the test with Rhipicephalus sanguineus was 100% in each case. Besides, the mortality at 20 mg/m2 in [3] and in test [4] was 90 to 100% each time. Moreover, the pest or weed control at 0.02 mg in the test with Boophilus microplus is 100%. Further, the “nematicidal activity (gall formation)” value in the test with Meloidogyne incognita worked out at 100%. The mortality at 4 ppm in the test on Myzus persicae (4 ppm) is 100%. The mortality at 100 g/ha in the test with Spodoptera frugiperda and with Nezara viridula (100 g/ha) was 100% each time. Moreover, the mortality at 500 g/ha in the test with Spodoptera frugiperda and with Nezara viridula was 100% in each case. For the same molecule, in test [4], the mortality at 4 mg/m2 lay within 90 to 100%.

As to `C[C@H](NC(=O)c1cc(Cl)cc(C(F)(F)F)c1)c1ncnn1-c1ncc(OC(F)(F)F)cn1` [Example I-011], in the test on Ctenocephalides felis [1], the pest or weed control at 5 µg/cm2 was found to be 100%. For the same molecule, the mortality at 4 mg/m2 in test [3] (setting [7]), in test [4] and in test [6] (setting [7]) was 90 to 100% each time. Also, the mortality at 20 mg/m2 in test [3] is 90 to 100%; in test [5], 80 to 100%; in [4] it was 90 to 100%; in test [6] (surface concentration 20 mg/m^2, exposure 30 minutes) it was 90 to 100%. In the test with Boophilus microplus, the pest or weed control at 0.02 mg worked out at 100%. Besides, the mortality at 100 ppm in the test on Ctenocephalides felis [2] worked out at 100%. Also, the mortality at 100 g/ha with Spodoptera frugiperda stood at 100%. The mortality at 500 g/ha in the test on Spodoptera frugiperda and in the test with Nezara viridula was 100% each time. Moreover, the pest or weed control at 80 µg/disc, 250 g/ha in the test with Diabrotica balteata came to 100%. For the same molecule, the pest or weed control at 160 µg/disc, 500 g/ha in the test on Diabrotica balteata stood at 100%.
